Patent US8530421B2, “Isolated polypeptides used for treatment of inflammatory diseases and inhibiting cancer metastasis” (Supadelixir Inc., priority 2009, dated 2013)

System: IgE-mediated immediate hypersensitivity reaction-induced mice
Assay: IgE-mediated immediate hypersensitivity reaction, ear thickness
Type: in vivo, Balb/c mice
Details: 100 μg tail vein, then 100 μg intraperitoneally daily from third day; DNFB antigen; 15 days
Method: Anti-allergic activity of the polypeptide according to the present invention was investigated. Balb/c mice (about 6 weeks old) were sensitized by injecting IgE antibody (5 μg) through the tail vain thereof. After 24 hours, the protein solution (100 μl) prepared by dissolving the peptide fragment of SEQ ID NO: 13 (100 μg) in PBS (100 μl) was injected through the tail vain of the sensitized mice. A 0.15% DNFB solution [2,4-d]nitrofluorobenzene in aceton: olive oil (4:1)] as an antigen was applied on each ear of the mice so as to induce IgE-mediated immediate hypersensitivity. In case of the negative control mice, only PBS (100 μl) was injected without treating a 0.15% DNFB solution. In case of the positive control mice, PBS (100 μl) was injected and then a 0.15% DNFB solution was treated. The changes in ear thickness were measured with a digital caliper every hour for 12 hours. Every day from the third day, the peptide fragment of SEQ ID NO: 13 (100 μg) was intraperitoneally injected to the test group mice, while only PBS was intraperitoneally injected to the control group mice. The changes in ear thickness were measured for 15 days.
FIG. 12 is the graph obtained by comparing the ear thickness changes of the test group mice and the positive control mice (increased by treating a 0.15% DNFB solution) with those of the negative control.

SEQ ID NO: 13: Leu-Xaa-Asp with Xaa Ala; CD99L2 fragment 121~123, PBDX(or XG) fragment 27~29 (LAD; listed as Homo sapiens)
ear thickness increments relative to the positive control group: remarkably decreased
